Results from patent US20260083691A1, “TREATING CANCERS WITH COMBINATIONS OF ANTI-CD20 ANTIBODY AND ACYLFULVENES” (Lantern Pharma Inc., priority 2023, published 2026).

What was measured:
[1] = tested on: OCLLY1-derived tumor xenografts; experiment: LP-284 alone and with rituximab in OCLLY1 DLBCL/HGBL-MYC/BCL2 tumor xenografts in mice; format: in vivo; conditions: for tumor growth inhibition (TGI): day 24, NOD.SCID mice
Experimental: HRD genomic scars from 107 B-NHL patients in the Pan-Cancer Analysis of Whole Genomes (PCAWG) study were tested. At least 10% of B-NHL patients were likely HRD+, with approximately 90% of these cases being diffuse large B-cell lymphoma (DLBCL). […] The calculated bliss synergy score between LP-284 and Rituximab on day 24 is 10, indicating synergy.
LP-284's efficacy in DLBCL/HGBL-MYC/BCL2 xenograft models was evaluated. LP-284, vehicle (saline), and Rituximab were administered intravenously in OCLLY1-derived tumor xenografts in mice. All vehicle-treated mice were sacrificed by day 24 due to excessive tumor size.
LP-284 was tested for anti-tumor efficacy as a monotherapy and in combination with rituximab in OCI-LY 1 DLBCL/HGBL-MYC/BCL2 cell line-derived tumor xenografts in mice. Methods: OCLLY1 cells were implanted subcutaneously in NOD.SCID mice. The following treatments were initiated when the tumors reached a volume of >100 mm3: vehicle (saline, administered intravenously on days 1, 8, and 15 in a 28-day cycle), 2 mg/kg or 4 mg/kg LP-284 (administered intravenously on days 1, 8, and 15 in a 28-day cycle), 10 mg/kg rituximab (administered intravenously on days 1 and 15 in a 28-day cycle), 2 mg/kg LP-284 and 10 mg/kg rituximab in combination. Four mice were used in each treatment group. Tumor Growth Inhibition (TGI) was calculated as % TGI=(1−((Tt/T0)/(Ct/C0)))/(1−(C0/Ct))*100 where Tt=mean tumor volume of treated at time t, TO=mean tumor volume of treated at time 0, Ct=mean tumor volume of control at time t, CO=mean tumor volume of control at time 0.

B-cells (CD19+ or CD20+) = experiment: B-cell reduction in immune-proficient mice, blood analyzed by flow cytometry; format: in vivo
Experimental: (§1) In this study, vehicle, LP-284 (4 mg/kg), and cyclophosphamide (25 mg/kg, a clinically relevant dose) were administered intravenously on days 1, 8, and 15, with three mice per treatment group. Blood samples were collected on Day 16 and analyzed by flow cytometry to quantify the B-cell populations.

[2] = Tolerability (body weight, gross necropsy) in immune-proficient mice; conditions: 4 mg/kg intravenously days 1, 8, 15
Experimental: as §1

Row | SMILES | tumor growth inhibition (TGI) ([1]; 2 mg/kg LP-284 alone intravenously days 1, 8, 15) [%] | tumor growth inhibition (TGI) ([1]; 4 mg/kg LP-284 intravenously days 1, 8, 15) [%] | tumor volume ([1]; by day 24, versus vehicle (saline), intravenous) | reduction of B-cells (CD19+ or CD20+) (B-cells (CD19+ or CD20+); iv, 4 mg/kg, 384 h) | body weight [2] | gross necropsy findings [2] | tolerability [2] | reduction of B-cells (CD19+ or CD20+) (B-cells (CD19+ or CD20+); cyclophosphamide 25 mg/kg intravenously days 1, 8, 15, blood collected Day 16, immune-proficient mice)
1 | CC1=C(CN(O)C(N)=O)C2=C(C)C3(CC3)[C@](C)(O)C(=O)C2=C1 [LP-284, (+)-hydroxyureamethyl acylfulvene] | 57 | 99 | significantly reduced tumor volume | approximately 30% | normal body weight | no abnormal findings | well-tolerated | 
2 | O=P1(N(CCCl)CCCl)NCCCO1 (centres unmarked) [cyclophosphamide, reference compound] |  |  |  |  |  |  |  | comparable to the reduction achieved by cyclophosphamide
